{
  "source": "patent US20210393606A1",
  "about": "“THERAPEUTIC AGENT FOR FRONTAL LOBE DYSFUNCTION” (KYOWA HAKKO KIRIN CO., LTD., priority 2015, published 2021)",
  "key": {"[1]": {"test_system": "NAC61-95-treated Slc:ICR mice (α-synucleinopathy model)", "test": "Spontaneous alternation task (Y-maze) in NAC61-95-treated α-synucleinopathy model mice", "type": "in vivo, mouse", "conditions": "NAC61-95 mice", "protocol": "(§1) By reference to articles (Science, 338, p. 949 (2012); Behavioral Brain Reexplore, 208, p. 274 (2010)), an animal model capable of confirming a treatment and/or prophylactic effect on α-synucleinopathy, for example, Lewy body disease (for example, cognitive impairment in Parkinson's disease, diffuse Lewy body disease, dementia with lewy bodies, movement disorder associated with Lewy body disease and the like) was generated as follows.\nThe cognitive function was evaluated using a spontaneous alternation task. The spontaneous alternation task is known as an evaluation system of cognitive function utilizing properties of animal to willingly explore a novel environment (Neuroscience and Biobehavioral Reviews 28, p. 497 (2004)). […] The motor function was evaluated by analyzing gait function in natural walk conditions using a gait analysis system. […]\nMice were brought into the experiment room on the previous day of test for habituation. […] Entry of all four limbs of a mouse into one arm was defined as entry into arm, and the order of entry of the mice into the arm was recorded. A behavior of continuous entry into all three different arms was defined as spontaneous alternation behavior, and the percentage of alternation behavior was calculated by the following calculation formula. […]"}, "[2]": {"test_system": "SLC: ICR male mice injected with α-synuclein or NAC61-95", "test": "α-Synucleinopathy model (α-synuclein or NAC61-95 injected mice), behavioral pharmacological evaluation, Experimental Example 2", "type": "in vivo, mouse", "conditions": "appropriate dose, a few hours after administration; written in present tense, no data", "from_the_text": "as §1, with “is generated.” for “was generated as follows.”\nAn appropriate dose of a solution of α-synuclein (rPeptide, S-100) or NAC61-95 (custom, Sigma) dissolved in phosphate buffered saline (PBS) is injected to the striatum or lateral cerebral ventricle of SLC: ICR male mice to induce cognitive impairment and/or movement disorder. After confirmation of the pathology induction, an appropriate dose of compound (I) is administered to the mice."}, "[3]": {"test_system": "NAC61-95-treated Slc:ICR mice (α-synucleinopathy model)", "test": "Gait analysis (CatWalk XT) in NAC61-95-treated α-synucleinopathy model mice", "type": "in vivo, mouse", "conditions": "NAC61-95 mice", "protocol": "as §1\nThe cognitive function was evaluated using a spontaneous alternation task. The spontaneous alternation task is known as an evaluation system of cognitive function utilizing properties of animal to willingly explore a novel environment (Neuroscience and Biobehavioral Reviews 28, p. 497 (2004)). That is, if the animal remembers the arm previously entered in exploration in a Y-maze apparatus, the behavior of spontaneous entry into a different arm is expressed by an alternation behavior rate, and used as an index of cognitive function. The motor function was evaluated by analyzing gait function in natural walk conditions using a gait analysis system.\nNAC61-95 (custom, Sigma) was dissolved in PBS to prepare 4 μg/μL NAC61-95 solution.\nUnder pentobarbital (Somnopentyl, Kyoritsuseiyaku, 50 mg/kg, i.p.) anesthesia, 5 μL of NAC61-95 solution was injected using a Hamilton syringe (10 μL) equipped with a double needle (27G, needle length 3 mm) into the right lateral cerebral ventricle of Slc:ICR mice (male, Japan SLC) over about 1 min, and stood for 1 min to induce cognitive impairment and/or movement disorder. The sham treatment group was injected with 5 μL of PBS.\nA gait analysis system (CatWalk XT, ver. 9.1, Noldus) was used. The system was constituted of a walkway with pressure dependent luminescence glass and a light source, luminescence ceiling, highly sensitive highspeed camera and analysis software, and the gait was analyzed by digitizing the brightness of the light emitted by the pressure dependent luminescence glass in response to the pressure. The gait data was automatically recorded and analyzed by the analysis software only when the mice moved straight forward without stopping in the predetermined area on the walkway.\nThe mice were brought into the experiment room without light and habituated for not less than 1 hr. The mice were placed in the apparatus, and allowed to walk freely until 6 running data were obtained for each mouse. The earliest three analyzable running data were used, and mean was calculated. By reference to an article relating to movement disorder in Parkinson's disease animal model (Journal of Biomedical Science 17, p. 9 (2010)), a decrease in the maximum contact area (Total surface area of certain paw at the moment of maximum paw contact) and print area (total surface area of the paw print), as well as change in the gait pattern (sequence of contact of 4 paws) were used as indices of movement disorder.\nAt 60 min before the test, compound (I) (suspended in 0.5 w/v % aqueous MC solution, and prepared to 0.5 mL per 100 g body weight of mouse on the administration day) was orally administered at a dose of 0.1 mg/kg, or a vehicle (0.5 w/v % aqueous MC solution) free of the test compound was orally administered at 0.5 mL per 100 g body weight of mice on the administration day."}, "[4]": {"test_system": "medial prefrontal dopaminergic terminal-lesioned rat", "test": "Object recognition test using medial prefrontal dopaminergic terminal-lesioned rat", "type": "in vivo", "conditions": "lesioned rats", "from_the_text": "The object recognition test is known as an evaluation system of cognitive function utilizing properties of animal to willingly explore a new object (Behavioural Brain Research 31, p. 47 (1988)). An animal is placed in an apparatus containing two identical objects and allowed to freely explore (acquisition trial), after which one of the objects in the apparatus is changed to one having a different shape (novel object) and the animal is allowed to freely explore (test trial). […] In this test, such property is evaluated as an index of cognitive function.\nCD(SD)IGS rat (male, Charles River) received Pentobarbital sodium salt (Tokyo Chemical Industry Co., Ltd., 30 mg/kg) intraperitoneally and fixed on a brain stereotaxis apparatus (SR-6, Narishige kagaku kikai kenkyusho) under anesthesia. Using a microinjection pump (CMA/100, Carnegie Medicine), dopaminergic neurotoxin, 6-hydroxidopamine hydrochloride (6-OHDA, Sigma-Aldrich) was injected over about 1 min at (1) 3.2 mm anterior, 0.8 mm left lateral and 3.0 mm ventral, (2) 3.2 mm anterior, 0.8 mm right lateral and 3.0 mm ventral, (3) 3.2 mm anterior, 0.8 mm left lateral and 5.0 mm ventral, (4) 3.2 mm anterior, 0.8 mm right lateral and 5.0 mm ventral, (5) 4.2 mm anterior, 0.8 mm left lateral and 4.0 mm ventral, and (6) 4.2 mm anterior, 0.8 mm right lateral and 4.0 mm ventral, each from the bregma suture of the rats to lesion dopaminergic terminals in the medial prefrontal cortex. 6-OHDA was prepared at a concentration of 4 μg/μL, injected at a flow rate of 1 μL/min over 1 min, and stood for 1 min. In the sham operated group, a stainless cannula was inserted into the same coordinates. […] The dosing volumes of pentobarbital sodium and desipramine hydrochloride were calculated at 1 and 5 mL/kg based on the body weight measured on the administration day. […]\nTo familiarize the rats with the experimenter, they were handled for 3 days before the test. […] The time spent in exploration (sniffing) each object of the rats in the test trial was measured, and the ratio (%) relative to the total exploration time was calculated. […]"}, "[5]": {"conditions": "0.1 mg/kg orally 60 min before test, mean±standard error"}, "[6]": {"conditions": "0.3 mg/kg orally 60 min before test, 3 min test trial, mean±standard error"}},
  "data": [
    {"compound": "Cc1ccc(C(=O)Nc2nc(-c3ccco3)c(C(=O)C3CCOCC3)s2)cn1", "note": "[compound (I)]", "values": [
      {"measurement": "alternation behavior (%)", "setting": "[1]; 0.1 mg/kg orally 60 min before test, Y-maze 7 min, mean±standard error", "value": "69.5 ± 2.4", "unit": "%"},
      {"measurement": "alternation behavior compared to the vehicle administration group", "setting": "[1]; 0.1 mg/kg orally, Student's t-test p<0.01", "value": "significantly high"},
      {"measurement": "pathology (cognitive impairment and/or movement disorder) by Y-maze, spontaneous motor activity, CATWALK", "setting": "[2]", "value": "Improvement of the pathology"},
      {"measurement": "gait pattern AA", "setting": "[3]; AA: right forepaw → right hindpaw → left forepaw → left hindpaw, 0.1 mg/kg orally, mean±standard error", "value": "0.00 ± 0.00"},
      {"measurement": "gait pattern AB", "setting": "[3]; AB: right forepaw → left hindpaw → left forepaw → right hindpaw, 0.1 mg/kg orally, mean±standard error", "value": "81.86 ± 4.25"},
      {"measurement": "gait pattern CA", "setting": "[3]; CA: right forepaw → left forepaw → right hindpaw → left hindpaw, 0.1 mg/kg orally, mean±standard error", "value": "13.39 ± 4.00"},
      {"measurement": "gait pattern CB", "setting": "[3]; CB: right forepaw → left hindpaw → right hindpaw → left forepaw, 0.1 mg/kg orally, mean±standard error", "value": "4.75 ± 1.79"},
      {"measurement": "change of gait pattern compared to the vehicle administration group", "setting": "[3]; 0.1 mg/kg orally", "value": "an increase in pattern AB and a decrease in pattern CB"},
      {"measurement": "maximum contact area, left forepaw", "setting": "[3]; [5]", "value": "0.30 ± 0.02"},
      {"measurement": "maximum contact area, left hindpaw", "setting": "[3]; [5]", "value": "0.31 ± 0.02"},
      {"measurement": "maximum contact area, right forepaw", "setting": "[3]; [5]", "value": "0.29 ± 0.02"},
      {"measurement": "maximum contact area, right hindpaw", "setting": "[3]; [5]", "value": "0.30 ± 0.02"},
      {"measurement": "print area, left forepaw", "setting": "[3]; [5]", "value": "0.40 ± 0.02"},
      {"measurement": "print area, left hindpaw", "setting": "[3]; [5]", "value": "0.38 ± 0.03"},
      {"measurement": "print area, right forepaw", "setting": "[3]; [5]", "value": "0.39 ± 0.02"},
      {"measurement": "print area, right hindpaw", "setting": "[3]; [5]", "value": "0.37 ± 0.03"},
      {"measurement": "maximum contact area and gait area of the left hindpaw compared to the vehicle administration group", "setting": "[3]; 0.1 mg/kg orally, p<0.05", "value": "significantly large"},
      {"measurement": "maximum contact area and gait area of the right forepaw compared to the vehicle administration group", "setting": "[3]; 0.1 mg/kg orally, p<0.1", "value": "tendency of the maximum contact area and gait area of the right forepaw being large"},
      {"measurement": "ratio (%) of exploration time, familiar object", "setting": "[4]; [6]", "value": "34.97 ± 2.88", "unit": "%"},
      {"measurement": "ratio (%) of exploration time, novel object", "setting": "[4]; [6]", "value": "65.03 ± 2.88", "unit": "%"},
      {"measurement": "exploration time of the novel object compared with the familiar object", "setting": "[4]; 0.3 mg/kg orally, paired t-test p<0.001", "value": "significantly longer"}
    ]}
  ]
}
